Counter-ions that a name gives are not always drawn.
Legend:
human FXa [1] = target: T1, human FXa (Homo sapiens, UniProt P00742); assay: Determination of human FXa-inhibiting effect (IC50 value); assay type: biochemical; settings: human FXa, substrate S-2222, absorbance at 405 nm, room temperature; read-out: Human FXa-inhibiting effect (IC50)
T1 construct: purchased Enzyme Research Labolatories, Inc
Excerpt: Determination of Human FXa-inhibiting Effect (IC50 Value)
As a control, Tris buffer was used in place of the test compound.

human FXa [2] = target: T1, human FXa; assay: Determination of anti-FXa activity in rat plasma after oral administration; assay type: in vivo; settings: rats, oral dose of 10 mg/kg, plasma collected 0.5, 1, 2 and 4 hours after administration, human FXa and S-2222; read-out: FXa-inhibiting activity (percent inhibition) in plasma
Protocol: Determination of Anti-FXa Activity in Rat Plasma After Oral Administration
(A) Administration and Blood Collection:
A drug solution (1 mg/ml) obtained by dissolving or suspending a test compound (10 mg) in 0.5% methyl cellulose (MC) was orally administered to rats (10 ml/kg). […] For rats of a control group, the same blood collection was conducted after a 0.5% MC solution was administered. Each blood sample was centrifuged at 1500×g for 10 minutes at 4° C. to separate plasma, and the plasma was preserved at −40° C. until it was used in the following determination of anti-FXa activity in plasma.
(B) Determination of FXa-inhibiting Activity in Plasma:
Tris buffer (100 mM Tris, 200 mM potassium chloride, 0.2% BSA, pH 7.4) (5456 μl), human FXa (2.5 U/ml, 44 μl) and water (550 μl) were mixed. The resultant human FXa solution was used in the following test.
The anti-FXa activity, i.e., percent inhibition (%) was calculated in accordance with the following equation: […]

T1 sequence (P00742 235-488 limits assumed): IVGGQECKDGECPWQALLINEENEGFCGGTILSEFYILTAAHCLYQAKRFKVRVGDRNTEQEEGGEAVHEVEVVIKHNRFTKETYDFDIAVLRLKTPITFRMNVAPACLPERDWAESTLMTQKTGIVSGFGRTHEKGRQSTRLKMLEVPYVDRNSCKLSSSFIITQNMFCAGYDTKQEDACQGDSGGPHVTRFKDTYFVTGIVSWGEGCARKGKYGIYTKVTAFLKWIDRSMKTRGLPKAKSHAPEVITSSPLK
T1 sequence (P00742 41-179 partner limits assumed): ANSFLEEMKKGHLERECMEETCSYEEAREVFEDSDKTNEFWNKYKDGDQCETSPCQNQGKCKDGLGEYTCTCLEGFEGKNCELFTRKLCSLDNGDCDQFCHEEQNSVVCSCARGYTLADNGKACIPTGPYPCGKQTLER

| SMILES | IC50 (human FXa [1]) | melting point | inhibition at 10 mg/kg (human FXa [2]) |
| --- | --- | --- | --- |
| CCOC(=O)N1CC[C@H](NC(=O)c2cc3cc(Cl)ccc3[nH]2)[C@H](NC(=O)c2nc3c(s2)CN(C)CC3)C1 (relative stereo) [Example 130, Ethyl (3R*,4S*)-4-{[(5-chloroindol-2-yl)carbonyl]amino}-3-{[(5-methyl-4,5,6,7-tetrahydrothiazolo[5,4-c]pyridin-2-yl)carbonyl]amino}piperidine-1-carboxylate hydrochloride] | 4.5 nM |  |  |
| CN1CCc2nc(C(=O)N[C@@H]3CN(C(=O)C4CC4)CC[C@@H]3NC(=O)c3cc4cc(Cl)ccc4[nH]3)sc2C1 (relative stereo) [Example 138, N-[(3R*,4S*)-4-{[(5-Chloroindol-2-yl)carbonyl]amino}-1-(cyclopropylcarbonyl)piperidin-3-yl]-5-methyl-4,5,6,7-tetrahydrothiazolo[5,4-c]pyridine-2-carboxamide hydrochloride] | 4.4 nM |  |  |
| COCC(=O)N1CC[C@H](NC(=O)c2cc3cc(Cl)ccc3[nH]2)[C@H](NC(=O)c2nc3c(s2)CN(C)CC3)C1 (relative stereo) [Example 143, N-[(3R*,4S*)-4-{[(5-Chloroindol-2-yl)carbonyl]amino}-1-(2-methoxyacetyl)piperidin-3-yl]-5-methyl-4,5,6,7-tetrahydro-thiazolo[5,4-c]pyridine-2-carboxamide hydrochloride] | 5.8 nM |  |  |
| CN1CCc2nc(C(=O)N[C@@H]3CN(C(=O)NC(C)(C)C)CC[C@@H]3NC(=O)c3cc4cc(Cl)ccc4[nH]3)sc2C1.Cl (relative stereo) [Example 164, N-((3R*,4S*)-1-[(tert-Butylamino)carbonyl]-4-{[(5-chloroindol-2-yl)carbonyl]amino}piperidin-3-yl)-5-methyl-4,5,6,7-tetrahydrothiazolo[5,4-c]pyridine-2-carboxamide hydrochloride] | 4.8 nM | 236 to 238 °C (dec.) |  |
| CN1CCc2nc(C(=O)N[C@@H]3C[C@@H](C(=O)N(C)C)CC[C@@H]3NC(=S)C(=O)Nc3ccc(Cl)cc3)sc2C1 [Ex. 246, N-{(1R,2S,5S)-2-{[2-(4-Chloroanilino)-2-oxoethane-thioyl]amino}-5-[(dimethylamino)carbonyl]cyclohexyl}-5-methyl-4,5,6,7-tetrahydrothiazolo[5,4-c]pyridine-2-carboxamide] | 3.1 nM |  |  |
| CN1CCc2nc(C(=O)N[C@@H]3C[C@@H](C(=O)N(C)C)CC[C@@H]3NC(=S)C(=O)Nc3ccc(Cl)cn3)sc2C1 [Ex. 247, N-{(1R,2S,5S)-2-({2-[(5-Chloropyridin-2-yl)amino]-2-oxoethanethioyl}amino)-5-[(dimethylamino)carbonyl]-cyclohexyl}-5-methyl-4,5,6,7-tetrahydrothiazolo[5,4-c]-pyridine-2-carboxamide] | 1.9 nM |  |  |
| CN1CCc2nc(C(=O)N[C@@H]3C[C@@H](C(=O)N(C)C)CC[C@@H]3NC(=O)C(=S)Nc3ccc(Cl)cn3)sc2C1 [Ex. 248, N-{(1R,2S,5S)-2-({2-[(5-Chloropyridin-2-yl)amino]-2-thioxoacetyl}amino)-5-[(dimethylamino)carbonyl]-cyclohexyl}-5-methyl-4,5,6,7-tetrahydrothiazolo[5,4-c]-pyridine-2-carboxamide] | 5.4 nM |  |  |
| COC(=O)[C@@H]1CC[C@H](NC(=O)c2cc3cc(Cl)ccc3[nH]2)[C@H](NC(=O)c2nc3c(s2)CN(C)CC3)C1 [Example 54, Methyl (1R,3R,4S)-4-{[(5-chloroindol-2-yl)carbonyl]amino}-3-{[(5-methyl-4,5,6,7-tetrahydrothiazolo[5,4-c]pyridin-2-yl)carbonyl]amino}cyclohexanecarboxylate] | 4.2 nM |  |  |
| CCNC(=O)[C@H]1CC[C@H](NC(=O)c2cc3cc(Cl)ccc3[nH]2)[C@H](NC(=O)c2nc3c(s2)CN(C)CC3)C1 [Example 62, N-{(1R,2S,5S)-2-{[(5-Chloroindol-2-yl)carbonyl]amino}-5-[(ethylamino)carbonyl]cyclohexyl}-5-methyl-4,5,6,7-tetrahydrothiazolo[5,4-c]pyridine-2-carboxamide hydrochloride] | 3.5 nM |  |  |
| CN1CCc2nc(C(=O)N[C@@H]3CN(S(=O)(=O)CC(=O)O)C[C@H]3NC(=O)c3cc4cc(Cl)ccc4[nH]3)sc2C1 [Example 101, 2-[((3R,4R)-3-{[(5-Chloroindol-2-yl)carbonyl]amino}-4-{[(5-methyl-4,5,6,7-tetrahydrothiazolo[5,4-c]pyridin-2-yl)carbonyl]amino}pyrrolidin-1-yl)sulfonyl]acetic acid] | 26 nM |  |  |
| CN1CCc2nc(C(=O)N[C@@H]3C[C@@H](C(=O)N(C)C)CC[C@@H]3NC(=O)C(=O)Nc3ccc(Cl)cc3)sc2C1 [Example 191, N^1-(4-Chlorophenyl)-N^2-((1S,2R,4S)-4-[(dimethylamino)-carbonyl]-2-{[(5-methyl-4,5,6,7-tetrahydrothiazolo[5,4-c]-pyridin-2-yl)carbonyl]amino}cyclohexyl)ethanediamide hydrochloride] | 1.2 nM |  | 62 to 96% |
| CN1CCc2nc(C(=O)N[C@@H]3C[C@@H](C(=O)N(C)C)CC[C@@H]3NC(=O)C(=O)Nc3ccc(F)cc3)sc2C1 [Example 194, N^1-((1S,2R,4S)-4-[(Dimethylamino)carbonyl]-2-{[(5-methyl-4,5,6,7-tetrahydrothiazolo[5,4-c]pyridin-2-yl)carbonyl]amino}cyclohexyl)-N^2-(4-fluorophenyl)-ethanediamide hydrochloride] | 5 nM |  | 62 to 96% |
| CN1CCc2nc(C(=O)N[C@@H]3C[C@@H](C(=O)N(C)C)CC[C@@H]3NC(=O)C(=O)Nc3ccc(Br)cn3)sc2C1 [Example 204, N^1-(5-Bromopyridin-2-yl)-N^2-((1S,2R,4S)-4-[(dimethylamino)-carbonyl]-2-{[(5-methyl-4,5,6,7-tetrahydrothiazolo[5,4-c]-pyridin-2-yl)carbonyl]amino}cyclohexyl)ethanediamide hydrochloride] | 1.5 nM |  | 62 to 96% |

Source: patent US7342014B2, “Diamine derivatives” (Daiichi Pharmaceutical Co., Ltd., priority 2001, dated 2008)
